What was measured:
Rattus norvegicus [1] = organism: Rattus norvegicus; experiment: Inhibition of rat recombinant geranylgeranyltransferase type I expressed in Escherichia coli assessed as residual enzyme activity for geranylgeranylation of K-Ras4B at 50 uM incubated for 30 mins in presence of [3H]GGPP by scintillation counting assay relative to control
Rattus norvegicus [2] = organism: Rattus norvegicus; experiment: Inhibition of rat recombinant geranylgeranyltransferase type I expressed in Escherichia coli assessed as residual enzyme activity for geranylgeranylation of RhoA at 50 uM incubated for 30 mins in presence of [3H]GGPP by scintillation counting assay relative to control

Activity (Rattus norvegicus [1]) [%]	Activity (Rattus norvegicus [2]) [%]	Compound
22.7 to 27	9.5	Cc1ccc([C@@H]2C[C@@H](SCCc3ccccc3)[C@H](C(=O)O)CN2S(=O)(=O)c2ccc(Cl)cc2)cc1
28.5 to 85.1	10.8	CCCCCS[C@@H]1C[C@@H](c2cccc(Br)c2)N(S(=O)(=O)c2ccc(C)cc2)C[C@H]1C(=O)O
20.4 to 22.8	0.2 to 3.2	Cc1ccc(S(=O)(=O)N2C[C@@H](C(=O)O)[C@H](Sc3ccc(Cl)cc3)C[C@H]2c2cccc(Br)c2)cc1
6.5 to 9.2	2	Cc1ccc(S(=O)(=O)N2C[C@@H](C(=O)O)[C@H](SCCc3ccccc3)C[C@H]2c2ccc3c(c2)OCO3)cc1
28.8 to 29.9	6.1	COc1ccc([C@@H]2C[C@@H](SCCc3ccccc3)[C@H](C(=O)O)CN2S(=O)(=O)c2ccc(C)cc2)cc1
15.5 to 18.1	4.9	Cc1ccc(S(=O)(=O)N2C[C@@H](C(=O)O)[C@H](SCc3ccc(Cl)cc3)C[C@H]2c2ccc(Cl)cc2)cc1
3.4 to 6.8	3.1	Cc1ccc(S(=O)(=O)N2C[C@@H](C(=O)O)[C@H](SCCc3ccccc3)C[C@H]2c2ccccc2F)cc1
13.7 to 19.2	2.3	Cc1ccc(S(=O)(=O)N2C[C@@H](C(=O)O)[C@H](SCCC(C)C)C[C@H]2c2cccc(Br)c2)cc1
	2.9	Cc1ccc(S(=O)(=O)N2C[C@@H](C(=O)O)[C@H](Sc3ccccc3)C[C@H]2c2cccc(Br)c2)cc1
90.8		CCc1ccc([C@@H]2C[C@@H](Sc3ccc(OC)cc3)[C@H](C(=O)O)CN2S(=O)(=O)c2ccc(C)cc2)cc1
87.8		Cc1ccc([C@@H]2C[C@@H](SC3CCCC3)[C@H](C(=O)O)CN2S(=O)(=O)c2ccc(C)cc2)cc1
69.1		COc1ccc([C@@H]2C[C@@H](SCc3ccc(Cl)cc3)[C@H](C(=O)O)CN2S(=O)(=O)c2ccc(C)cc2)cc1OC
76.1		Cc1ccc(S[C@@H]2C[C@@H](c3ccc(Cl)cc3)N(S(=O)(=O)c3ccc(C)cc3)C[C@H]2C(=O)O)cc1
113		COc1cccc([C@@H]2C[C@@H](SC3CCCC3)[C@H](C(=O)O)CN2S(=O)(=O)c2ccc(C)cc2)c1
88.5		CCCS[C@@H]1C[C@@H](c2cccc(Br)c2)N(S(=O)(=O)c2ccc(C)cc2)C[C@H]1C(=O)O
35		COc1cccc([C@@H]2C[C@@H](SCc3ccccc3)[C@H](C(=O)O)CN2S(=O)(=O)c2ccc(C)cc2)c1
112		COc1ccc([C@@H]2C[C@@H](Sc3ccccc3)[C@H](C(=O)O)CN2S(=O)(=O)c2ccc(C)cc2)cc1OC
93.6		Cc1ccc(S(=O)(=O)N2C[C@@H](C(=O)O)[C@H](SC3CCCC3)C[C@H]2c2ccccc2)cc1
75.7		CCS[C@@H]1C[C@@H](c2cccc(Cl)c2)N(S(=O)(=O)c2ccc(C)cc2)C[C@H]1C(=O)O
86.1		COc1cccc([C@@H]2C[C@@H](Sc3ccccc3)[C@H](C(=O)O)CN2S(=O)(=O)c2ccc(C)cc2)c1
96.8		CCCS[C@@H]1C[C@@H](c2ccc(C)cc2)N(S(C)(=O)=O)C[C@H]1C(=O)O
53.2		Cc1ccccc1S(=O)(=O)N1C[C@@H](C(=O)O)[C@H](SCCC(C)C)C[C@H]1c1ccc(Cl)cc1
47.4		Cc1ccc([C@@H]2C[C@@H](SCc3ccccc3)[C@H](C(=O)O)CN2S(=O)(=O)c2ccccc2)cc1
77.4		Cc1ccc(S(=O)(=O)N2C[C@@H](C(=O)O)[C@H](SCCC(C)C)C[C@H]2c2ccc3c(c2)OCO3)cc1

The next lines start with the compound.

Compound	Activity (Rattus norvegicus [1]) [%]	Activity (Rattus norvegicus [2]) [%]
C=CCS[C@H]1[C@@H](C(=O)O)[C@H](c2ccc(Cl)c(Cl)c2)N(S(=O)(=O)c2ccc(C)cc2)[C@@H]1CCCC	21.4	9.6
Cc1ccc([C@@H]2C[C@@H](Sc3ccc(Cl)cc3)[C@H](C(=O)O)CN2S(=O)(=O)c2ccccc2C)cc1	4 to 6	-4.7 to 10.5
Cc1ccccc1S(=O)(=O)N1C[C@@H](C(=O)O)[C@H](Sc2ccc(Cl)cc2)C[C@H]1c1ccc(Cl)cc1	83.5	13
Cc1cccc([C@H]2C(C(=O)O)=CC[C@@H](c3ccc(Cl)cc3)N2S(=O)(=O)c2ccccc2C)c1	15.6 to 81.1	12.4
Cc1ccc(S(=O)(=O)N2[C@@H](c3cccc(Br)c3)C(C(=O)O)=CC[C@H]2c2cccc(Br)c2)cc1	9.4 to 15.2	3.7
COc1ccc([C@@H]2C[C@@H](SCc3ccc(Cl)cc3)[C@H](C(=O)O)CN2S(=O)(=O)c2ccc(Cl)cc2)cc1	20.8 to 27.1	8.5
Cc1ccccc1S(=O)(=O)N1C[C@@H](C(=O)O)[C@H](SCc2ccc(Cl)cc2)C[C@H]1c1ccc(Cl)cc1	21.3 to 24.5	13
C=CCS[C@H]1[C@@H](C(=O)O)[C@H](c2ccc(Cl)cc2)N(S(=O)(=O)c2ccc(C)cc2)[C@@H]1CC1CCCC1	25.2	7.7
Cc1ccc([C@@H]2C[C@@H](Sc3ccccc3)[C@H](C(=O)O)CN2S(=O)(=O)c2ccccc2C)cc1	69.5	17.5
Cc1ccc(S(=O)(=O)N2[C@@H](c3cccc(F)c3)C(C(=O)O)=CC[C@H]2c2cccc(Br)c2)cc1	17 to 85.6	15
CC(C)CCS[C@H]1[C@@H](C(=O)O)[C@H](c2ccc(Cl)cc2)N(S(=O)(=O)c2ccccc2)[C@@H]1C(C)C	28.1	5.9
C=CCS[C@H]1[C@@H](C(=O)O)[C@H](c2ccc(Cl)c(Cl)c2)N(S(=O)(=O)c2ccc(C)cc2)[C@@H]1CC1CCCC1	12.1	8.6
C=CCS[C@H]1[C@@H](C(=O)O)[C@H](c2ccc(C#N)cc2)N(S(=O)(=O)c2ccc(C)cc2)[C@@H]1C(C)C	23.1	9.3
COc1ccc([C@@H]2C[C@@H](SCCc3ccccc3)[C@H](C(=O)O)CN2S(=O)(=O)c2ccccc2)cc1	24.1 to 28.3	9.6
Cc1ccc([C@H]2C(C(=O)O)=CC[C@@H](c3ccc(Cl)c(Cl)c3)N2S(=O)(=O)c2ccc(C)cc2)cc1	12.4 to 17.4	15.6
Cc1ccc(S(=O)(=O)N2[C@@H](c3cccc(Br)c3)C(C(=O)O)=CC[C@H]2c2cccc(Cl)c2)cc1	11 to 23.1	7
C=CCS[C@@H]1C[C@@H](c2ccc(Cl)cc2)N(S(=O)(=O)c2ccccc2C)C[C@H]1C(=O)O	16.4 to 17.8	9.4
Cc1ccccc1S(=O)(=O)N1[C@@H](c2ccc(Cl)cc2)C(C(=O)O)=C[C@H]1CC1CCCC1	23.7	9.1
C=CCS[C@H]1[C@@H](C(=O)O)[C@H](c2ccc(OC)c(OC)c2)N(S(=O)(=O)c2ccc(C)cc2)[C@@H]1CCCCCC	22.3	8.1
COc1cccc([C@@H]2CC=C(C(=O)O)[C@H](c3cccc(Cl)c3)N2S(=O)(=O)c2ccc(C)cc2)c1	67.1	
Cc1ccc([C@@H]2CC=C(C(=O)O)[C@H](c3ccc(Cl)cc3)N2S(=O)(=O)c2ccc(Cl)cc2)cc1	63.8	
COc1ccc([C@@H]2C[C@@H](Sc3ccc(C)cc3)[C@H](C(=O)O)CN2S(=O)(=O)c2ccccc2C)cc1	78.5	

Compound	Activity (Rattus norvegicus [1]) [%]	Activity (Rattus norvegicus [2]) [%]
COc1cccc([C@@H]2CC=C(C(=O)O)[C@H](c3ccc(Br)cc3)N2S(=O)(=O)c2ccc(C)cc2)c1	65.8	
Cc1ccccc1S(=O)(=O)N1[C@@H](c2ccc(Br)cc2)C(C(=O)O)=CC[C@H]1c1ccc(Cl)cc1	86.6	
CC(=O)C1=CC[C@@H](c2ccc(C)cc2)N(S(=O)(=O)c2ccc(C)cc2)C1	90.6	
COc1ccc([C@@H]2C[C@@H](SCCc3ccccc3)[C@H](C(=O)O)CN2S(=O)(=O)c2ccc(Cl)cc2)cc1	75.3	
COc1ccc([C@@H]2C[C@@H](SCc3ccccc3)[C@H](C(=O)O)CN2S(=O)(=O)c2ccccc2)cc1	57.3	
Cc1ccc(S(=O)(=O)N2[C@@H](c3cccc(C)c3)C(C(=O)O)=CC[C@H]2c2ccc(F)cc2)cc1	78.1	
COc1ccc([C@@H]2CC=C(C(=O)O)[C@H](c3ccc(C)cc3)N2S(=O)(=O)c2ccc(Cl)cc2)cc1	72.5	
Cc1ccc(S[C@@H]2C[C@@H](c3ccc(C)cc3)N(S(=O)(=O)c3ccccc3)C[C@H]2C(=O)O)cc1	91.3	
Cc1ccc([C@@H]2C[C@@H](SCc3ccc(C(C)(C)C)cc3)[C@H](C(=O)O)CN2S(=O)(=O)c2ccc(C)cc2)cc1	69.6	
COc1ccc(S[C@@H]2C[C@@H](c3ccccc3F)N(S(=O)(=O)c3ccc(C)cc3)C[C@H]2C(=O)O)cc1	100	
COc1ccc([C@@H]2CC=C(C(=O)O)[C@H](c3cccc(C)c3)N2S(=O)(=O)c2ccc(Cl)cc2)cc1	85.8	
Cc1ccc(S(=O)(=O)N2[C@@H](c3cccc(C)c3)C(C(=O)O)=CC[C@H]2c2cccs2)cc1	68.9	
COc1ccc([C@@H]2CC=C(C(=O)O)[C@H](c3cccc(Cl)c3)N2S(=O)(=O)c2ccccc2C)cc1	66.1	
COc1ccc([C@@H]2CC=C(C(=O)O)[C@H](c3ccc(F)cc3)N2S(=O)(=O)c2ccc(C)cc2)cc1	72.9	
Cc1ccc(S(=O)(=O)N2C[C@@H](C(=O)O)[C@H](SCc3ccc(C(C)(C)C)cc3)C[C@H]2c2ccccc2F)cc1	71.9	
CS(=O)(=O)N1[C@@H](c2cccc(Cl)c2)C(C(=O)O)=CC[C@H]1c1ccccc1	72.4	
Cc1ccc(S(=O)(=O)N2[C@@H](c3cccc(F)c3)C(C(=O)O)=CC[C@H]2c2ccc(C(C)C)cc2)cc1	72.8	
Cc1ccc([C@@H]2CC=C(C(=O)O)[C@H](c3cccc(Cl)c3)N2S(C)(=O)=O)cc1	64.4	
CCOc1ccc([C@@H]2C[C@@H](SCc3ccc(C(C)(C)C)cc3)[C@H](C(=O)O)CN2S(=O)(=O)c2ccc(C)cc2)cc1	46	
Cc1ccc([C@@H]2CC=C(C(=O)O)[C@H](c3cccc(F)c3)N2S(=O)(=O)c2ccc(Cl)cc2)cc1	54.5	
COc1ccc([C@@H]2CC=C(C(=O)O)[C@H](c3cccc(Cl)c3)N2S(=O)(=O)c2ccc(C)cc2)cc1	89.3	
Cc1ccc(S(=O)(=O)N2[C@@H](c3ccc(C(C)(C)C)cc3)C(C(=O)O)=CC[C@H]2c2cccc(C)c2)cc1	56.1	
